Entries after “also recorded” stand apart in the source; their conditions may differ.
System: dorsal horn neurons
Assay: whole-cell recording of dorsal horn neurons in spinal cord slices from Chung models (Example 4)
Format: cell-based, rat
Settings: 1 μM; for Input Resistance, mean in presence of peptide / Membrane Potential, mean in presence of peptide: all cells; for Normalised Input Resistance / Normalised Input Resistance ΔIR: control = 100; for effect on membrane potential and activity of dorsal horn neurons: ipsilateral to injury; for Normalised Membrane Potential / Normalised Membrane Potential ΔVm: rest = 100; for ΔIR, change in neuronal input resistance: vs control, in table positive = reduction, negative = increase; for ΔVm, change in membrane potential: vs rest, in table positive = hyperpolarisation, negative = depolarisation
Protocol: Adult male Sprague-Dawley rats, weighing 220-250 g (aged/weeks and older) at the time of surgery, were used in this study. They were housed in groups of 4, in an air-conditioned room, on a 12-hour light/dark cycle with food and water available ad libitum. All experiments were performed in accordance with the U.K. Animals (Scientific Procedures) Act (1986).
The animals were housed in groups of 4 in an air-conditioned room on a 12-hour light/dark cycle. Food and water were available ad libitum. They were allowed to acclimatise to the environment for experiments for three days by leaving them on a raised metal mesh for at least 40 min. The baseline paw withdrawal threshold (PWT) was examined using a series of graduated von Frey hairs (see below) for 3 consecutive days before surgery and re-assessed on the 6th to 8th day after surgery and on the 12th to 14th day after surgery before drug dosing.
Each rat was anaesthetized with 5% isoflurane mixed with oxygen (2 L per min) followed by an intramuscular (i.m.) injection of ketamine 90 mg/kg plus xylazine 10 mg/kg. The back was shaved and sterilized with povidone-iodine. The animal was placed in a prone position and a para-medial incision was made on the skin covering the L4-6 level. The L5 spinal nerve was carefully isolated and tightly ligated with 6/0 silk suture. The wound was then closed in layers after a complete haemostasis. A single dose of antibiotics (Amoxipen, 15 mg/rat, i.p.) was routinely given for prevention of infection after surgery. The animals were placed in a temperature-controlled recovery chamber until fully awake before being returned to their home cages.
LAT9993 LoopS (SEQ ID NO:28), SEQ11+LAT9993 Loop (SEQ ID NO:32; […]), SEQ25+LAT9993 Loop (SEQ ID NO:33; […]), LAT9993 SLoop A4 (SEQ ID NO:30), LAT9993 SLoop A7 (SEQ ID NO:31), LAT9993 SLoop A9 (SEQ ID NO:34; SCRSRPVEASC) and LAT9993 SLoop A10 (SEQ ID NO:35; SCRSRPVESAC), were solubilised in distilled water and made up as concentrated stocks and stored frozen until the day of experiment when they were diluted to the required test concentrations in artificial cerebrospinal fluid (aCSF), as described in Example 3, above.
Ten to fourteen days after surgery, animals were placed in individual Perspex boxes on a raised metal mesh for at least 40 minutes prior to PWT testing. Starting with the filament of lowest force (1 g), each filament was applied perpendicularly to the centre of the ventral surface of the paw until slightly bent for 6 seconds. If the animal withdrew or lifted its paw upon stimulation, a von Frey hair with force immediately lower than that tested was subsequently used. If no response was observed, then a hair with force immediately higher was tested. The lowest amount of force required to induce reliable responses (positive in 2 out of 3 trials) was recorded as the value of PWT. Only animals showing significant mechanical allodynia (PWT≤3.5 g) were selected for subsequent electrophysiological experiments (see FIG. 5).
Once validation of a neuropathic state had been confirmed, animals were terminally anesthetized using isoflurane (Norvartis Animal Health UK Ltd.), cervically dislocated and decapitated. A laminectomy was performed and the spinal cord, with spinal roots and DRG attached, removed and cut into 250-450 μm thick slices using a Leica VT1000S vibrating microtome (Leica Microsystems UK, Milton Keynes, United Kingdom). Slices were maintained in artificial cerebrospinal fluid (aCSF) at room temperature for 1 hr after slicing before recording. For recording, individual slices were held between two grids in a custom-built chamber continuously perfused with aCSF at a rate of 4-10 ml.min^−1, illuminated from below, and viewed under a dissection microscope. The aCSF was of the following composition (mM): NaCl, 127; KCl, 1.9; KH2PO4, 1.2; CaCl2, 2.4; MgCl2, 1.3; NaHCO3, 26; D-glucose, 10; equilibrated with 95% O2-5% CO2. […]

[1] = listed as SEQ 11 + LAT9993 Loop

Sequence | dorsal root afferent-mediated EPSPs / synaptic inputs (words) | Input Resistance, mean in presence of peptide [MΩ] | Membrane Potential, mean in presence of peptide [mV] | Normalised Input Resistance | Normalised Input Resistance ΔIR | effect on membrane potential and activity of dorsal horn neurons | Normalised Membrane Potential | Normalised Membrane Potential ΔVm | ΔIR, change in neuronal input resistance [MΩ] | ΔVm, change in membrane potential [mV] | further results
CRSRPVESSCSSKFSWDEYEQYKKE (listed as Homo sapiens) [SEQ25+LAT9993 Loop, peptide variant of formula (I)] | suppressed dorsal root-evoked excitatory posts-synaptic potentials (EPSPs) in one neurone; also recorded: suppressed dorsal root afferent-mediated synaptic inputs; also recorded: partly suppressed | 339.6±97.6 | −49.1±3.0 | 101.7 | −1.7 | induced inhibition of spontaneous activity and suppressed an after-depolarising potential; also recorded: slight depolarisation of the membrane potential | 93.7 | 6.3 | 1.4±18.2 | 3.4±0.9 | Input Resistance, mean in presence of peptide (listed as SEQ25 + LAT9993 Loop): 339.6 MΩ; Membrane Potential, mean in presence of peptide (listed as SEQ25 + LAT9993 Loop): −49.1 mV; ΔIR, change in neuronal input resistance (listed as SEQ25 + LAT9993 Loop): −1.4 MΩ; ΔVm, change in membrane potential (listed as SEQ25 + LAT9993 Loop): −3.4 mV
IDPSSEAPGHSCRSRPVESSC (listed as Homo sapiens) [SEQ11+LAT9993 Loop, peptide variant of formula (I)] | little effect; also recorded: No obvious effect | 338.1±103.7 | −52.3±9.8 | 85.6 | 14.4 | membrane hyperpolarisation and inhibition of activity in 2 neurons; also recorded: membrane depolarisation in the other neurone | 101.4 | −1.4 | 109.5±140.2 | 1.6±3.4 | Input Resistance, mean in presence of peptide [1]: 338.1 MΩ; Membrane Potential, mean in presence of peptide [1]: −52.3 mV; reversal potential of induced response (VI plots intersect) (single cells): around −65 mV; ΔIR, change in neuronal input resistance [1]: 109.5 MΩ; ΔVm, change in membrane potential [1]: 1.6 mV
SCRARPVESSC (listed as Homo sapiens) [LAT9993 SLoop A4, peptide variant of formula (I)] | suppressed | 294.6±40.7 | −53.3±5.1 | 78.3 | 21.7 | membrane hyperpolarisation and inhibition of activity in 1 neurone; also recorded: membrane depolarisation in 3 neurons | 107.7 | −7.7 | 103.1±55.5 | 4.2±3.1 | Input Resistance, mean in presence of peptide (listed as LAT9993 Sloop A4): 294.6 MΩ; Membrane Potential, mean in presence of peptide (listed as LAT9993 Sloop A4): −53.3 mV; effect on membrane potential and activity of dorsal horn neurons (listed as LAT9993 Loop A4): membrane hyperpolarisation and suppression of activity; dorsal root afferent-mediated EPSPs / synaptic inputs (words) (listed as LAT9993 Loop A4): suppressed dorsal root-evoked excitatory synaptic transmission; also recorded: partly suppressed; ΔIR, change in neuronal input resistance (listed as LAT9993 Sloop A4): 103.1 MΩ; ΔVm, change in membrane potential (listed as LAT9993 Sloop A4): 4.2 mV

Reference: patent US11566049B2, “Cyclic peptides and uses thereof” (LATERAL IP PTY LTD, priority 2018, dated 2023)
